According to PubChem BioAssay AID256 (DTP/NCI, 2004):
Inconclusive results and toxic doses are left out. Rule for the calls: active = survival T/C of 150% or more; inactive = T/C below 125% in these data.

Tested on: CD2F1 mice, L1210 leukemia ip, survival T/C
Assay: NCI In Vivo Anticancer Drug Screen. Data for tumor model L1210 Leukemia (intraperitoneal) in CD2F1 (CDF1) mice
Conditions: higher = longer survival
Summary of the method: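 Vehicle-treated tumor-bearing mice served as controls (C) for compound-treated mice (T). Reported figure is T divided by C.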

[1] = endpoint: mean survival time, dose: 100.0 mg/kg/injection, schedule: Q01DX001 (ip), vehicle: saline
[2] = endpoint: mean survival time, dose: 200.0 mg/kg/injection, schedule: Q01DX001 (ip), vehicle: saline
[3] = endpoint: mean survival time, dose: 400.0 mg/kg/injection, schedule: Q01DX001 (ip), vehicle: saline
[4] = endpoint: mean survival time, dose: 100.0 mg/kg/injection, schedule: Q01DX009 (ip), vehicle: saline with Tween-80
[5] = endpoint: mean survival time, dose: 200.0 mg/kg/injection, schedule: Q01DX009 (ip), vehicle: saline with Tween-80
[6] = endpoint: mean survival time, dose: 400.0 mg/kg/injection, schedule: Q01DX009 (ip), vehicle: saline with Tween-80
[7] = endpoint: mean survival time, dose: 100.0 mg/kg/injection, schedule: Q01DX001 (ip), vehicle: saline with Tween-80
[8] = endpoint: mean survival time, dose: 100.0 mg/kg/injection, schedule: Q04DX003 (ip), vehicle: saline with Tween-80
[9] = endpoint: mean survival time, dose: 200.0 mg/kg/injection, schedule: Q01DX001 (ip), vehicle: saline with Tween-80
[10] = endpoint: mean survival time, dose: 200.0 mg/kg/injection, schedule: Q04DX003 (ip), vehicle: saline with Tween-80
[11] = endpoint: mean survival time, dose: 400.0 mg/kg/injection, schedule: Q04DX003 (ip), vehicle: saline with Tween-80

Measured: T/C

O=P(OCCCl)(OCCCl)C(Cl)(Cl)Cl
inactive: [1] 103 % of control | [2] 102 % of control | [3] 103 % of control

C1COC2(CCC3(CC2)OCCO3)O1
inactive: [4] 102 % of control | endpoint: mean survival time, dose: 100.0 mg/kg/injection, schedule: Q04DX003 (ip), vehicle: saline sonified 101 % of control | [5] 102 % of control | endpoint: mean survival time, dose: 200.0 mg/kg/injection, schedule: Q04DX003 (ip), vehicle: saline sonified 101 % of control | [6] 103 % of control | endpoint: mean survival time, dose: 400.0 mg/kg/injection, schedule: Q04DX003 (ip), vehicle: saline sonified 100 % of control

N#CSCc1ccc(Cl)cc1
inactive: endpoint: mean survival time, dose: 6.25 mg/kg/injection, schedule: Q01DX009 (ip), vehicle: saline with Tween-80 98 % of control | endpoint: mean survival time, dose: 12.5 mg/kg/injection, schedule: Q01DX009 (ip), vehicle: saline with Tween-80 96 % of control | endpoint: mean survival time, dose: 25.0 mg/kg/injection, schedule: Q01DX009 (ip), vehicle: saline with Tween-80 106 % of control

Brc1cnc2n[nH]nc2c1
inactive: [1] 109 % of control | [2] 97 % of control | [3] 97 % of control

CCCCCCC(C)NCCOC(=O)c1ccccc1 (configuration not stated)
inactive: endpoint: mean survival time, dose: 75.0 mg/kg/injection, schedule: Q01DX001 (ip), vehicle: saline 103 % of control | endpoint: mean survival time, dose: 150.0 mg/kg/injection, schedule: Q01DX001 (ip), vehicle: saline 102 % of control | endpoint: mean survival time, dose: 300.0 mg/kg/injection, schedule: Q01DX001 (ip), vehicle: saline 97 % of control

COc1ccc(CCNC(C)Cc2ccc(OC)c(OC)c2)cc1OC (configuration not stated)
inactive: endpoint: mean survival time, dose: 12.5 mg/kg/injection, schedule: Q01DX009 (ip), vehicle: water 104 % of control | endpoint: mean survival time, dose: 25.0 mg/kg/injection, schedule: Q01DX009 (ip), vehicle: water 101 % of control | endpoint: mean survival time, dose: 50.0 mg/kg/injection, schedule: Q01DX009 (ip), vehicle: water 103 % of control

O=C(O)c1cnc(Cl)c(Br)c1
inactive: [7] 103 % of control | [8] 97 % of control | [9] 93 % of control | [10] 93 % of control | endpoint: mean survival time, dose: 400.0 mg/kg/injection, schedule: Q01DX001 (ip), vehicle: saline with Tween-80 98 % of control | [11] 93 % of control

NC(=O)c1ncn(C2OC3COP(=O)(O)OC3C2O)c1N (configuration not stated)
inactive: endpoint: median survival time, dose: 44.6 mg/kg/injection, schedule: Q01DX005 (ip), vehicle: saline 98 % of control | endpoint: median survival time, dose: 89.2 mg/kg/injection, schedule: Q01DX005 (ip), vehicle: saline 101 % of control | endpoint: median survival time, dose: 178.5 mg/kg/injection, schedule: Q01DX005 (ip), vehicle: saline 93 % of control

CN(C)C(=S)S
inactive: endpoint: mean survival time, dose: 50.0 mg/kg/injection, schedule: Q01DX001 (ip), vehicle: carboxymethylcellulose (CMC) 93 % of control | endpoint: mean survival time, dose: 100.0 mg/kg/injection, schedule: Q01DX001 (ip), vehicle: carboxymethylcellulose (CMC) 89 % of control | [8] 94 % of control | endpoint: mean survival time, dose: 200.0 mg/kg/injection, schedule: Q01DX001 (ip), vehicle: carboxymethylcellulose (CMC) 104 % of control | [10] 105 % of control | endpoint: mean survival time, dose: 400.0 mg/kg/injection, schedule: Q01DX001 (ip), vehicle: carboxymethylcellulose (CMC) 106 % of control | [11] 100 % of control

Oc1ccccc1Br
inactive: [1] 96 % of control | [2] 93 % of control

COC(=O)C1CSCC1=O (configuration not stated)
inactive: endpoint: mean survival time, dose: 50.0 mg/kg/injection, schedule: Q01DX001 (ip), vehicle: saline with Tween-80 97 % of control | [7] 97 % of control | [9] 103 % of control

Cc1ccc(S(=O)(=O)CN2CCC(=O)c3ccccc32)cc1
inactive: endpoint: mean survival time, dose: 75.0 mg/kg/injection, schedule: Q04DX003 (ip), vehicle: saline 95 % of control | endpoint: mean survival time, dose: 150.0 mg/kg/injection, schedule: Q04DX003 (ip), vehicle: saline 91 % of control | endpoint: mean survival time, dose: 300.0 mg/kg/injection, schedule: Q04DX003 (ip), vehicle: saline 97 % of control

CC(=O)OC1CCC2(C)C(CCC3C2CCC2(C)C3CC3OC(CCC(C)CO)C(C)C32)C1 (configuration not stated)
inactive: [4] 95 % of control | [5] 91 % of control | [6] 96 % of control

CN(C)c1ccc(/C=C/C(=O)Cc2ccccc2)cc1
inactive: endpoint: mean survival time, dose: 100.0 mg/kg/injection, schedule: Q01DX001 (ip), vehicle: saline sonified 100 % of control

Cc1cc(C)c(NC(=O)c2ccccc2Cl)c(C)c1
inactive: [8] 97 % of control | [10] 110 % of control | [11] 97 % of control
